From US20080011613A1, “Method of electrolytically depositing a pharmaceutical coating onto a conductive osteal implant” (priority 2004, published 2008)

Assay: Precipitation boundary of etidronate in the presence of Ca2+ by NaOH titration
Format: physicochemical
Conditions: Ca:etidronate molar ratio 2:1, titration with NaOH
Method: Etidronic acid has a molecular weight of 206.03 (Fluka, Switzerland). The precipitation boundary of etidronate in the presence of Ca^2+ was determined by titration and used for choosing the solution conditions suitable for electrolytic deposition (ELD). A series of 50 mL solutions containing etidronate (15, 10, 9, 5, 4, 2.5, 1.9, 1.25, 1.22, 1.15, 1.10, and 0.625 mM) and Ca(NO3)2 of different concentrations, with Ca:etidronate molar ratio all fixed at 2:1, were prepared and titrated with NaOH solutions until the first visual sign of turbidity (end point/the precipitation boundary). The pH and NaOH volume consumption at end points were recorded and the Ca^2+ and etidronate concentrations at this point was calculated using equation (Eq. 3): [formula] where C is the titrate (etidronate or Ca^2+) concentration (mM) at the end point, C0 is the titrate concentration (mM) before titration, and VNaOH is NaOH volume (mL) consumption at the end point of titration.
After the precipitation boundary was established, etidronate 5.0 mM, Ca^2+ 10 mM, and pH 4.50 were chosen as the solution conditions for ELD. […] This volume also provided reasonable space to accommodate the experiment setup, that is, two electrodes and the fixture.

- Etidronate concentration at which no precipitation could be visually judged: < 1.15 mM
SMILES: CC(O)(P(=O)(O)O)P(=O)(O)O [etidronate, 1-hydroxy-ethylidene-1,1-diphosphonate]
